This assay addresses T1, CPS1 (Homo sapiens, UniProt P31327).
T1 construct: The full length, human CPS1 gene was cloned into pFastBac HTA; His6 (from the pFastBac HTA vector); made in house; host or cells: SF21 insect cells (baculovirus, Bac-to-bac)
T1 sequence (P31327 39-1500): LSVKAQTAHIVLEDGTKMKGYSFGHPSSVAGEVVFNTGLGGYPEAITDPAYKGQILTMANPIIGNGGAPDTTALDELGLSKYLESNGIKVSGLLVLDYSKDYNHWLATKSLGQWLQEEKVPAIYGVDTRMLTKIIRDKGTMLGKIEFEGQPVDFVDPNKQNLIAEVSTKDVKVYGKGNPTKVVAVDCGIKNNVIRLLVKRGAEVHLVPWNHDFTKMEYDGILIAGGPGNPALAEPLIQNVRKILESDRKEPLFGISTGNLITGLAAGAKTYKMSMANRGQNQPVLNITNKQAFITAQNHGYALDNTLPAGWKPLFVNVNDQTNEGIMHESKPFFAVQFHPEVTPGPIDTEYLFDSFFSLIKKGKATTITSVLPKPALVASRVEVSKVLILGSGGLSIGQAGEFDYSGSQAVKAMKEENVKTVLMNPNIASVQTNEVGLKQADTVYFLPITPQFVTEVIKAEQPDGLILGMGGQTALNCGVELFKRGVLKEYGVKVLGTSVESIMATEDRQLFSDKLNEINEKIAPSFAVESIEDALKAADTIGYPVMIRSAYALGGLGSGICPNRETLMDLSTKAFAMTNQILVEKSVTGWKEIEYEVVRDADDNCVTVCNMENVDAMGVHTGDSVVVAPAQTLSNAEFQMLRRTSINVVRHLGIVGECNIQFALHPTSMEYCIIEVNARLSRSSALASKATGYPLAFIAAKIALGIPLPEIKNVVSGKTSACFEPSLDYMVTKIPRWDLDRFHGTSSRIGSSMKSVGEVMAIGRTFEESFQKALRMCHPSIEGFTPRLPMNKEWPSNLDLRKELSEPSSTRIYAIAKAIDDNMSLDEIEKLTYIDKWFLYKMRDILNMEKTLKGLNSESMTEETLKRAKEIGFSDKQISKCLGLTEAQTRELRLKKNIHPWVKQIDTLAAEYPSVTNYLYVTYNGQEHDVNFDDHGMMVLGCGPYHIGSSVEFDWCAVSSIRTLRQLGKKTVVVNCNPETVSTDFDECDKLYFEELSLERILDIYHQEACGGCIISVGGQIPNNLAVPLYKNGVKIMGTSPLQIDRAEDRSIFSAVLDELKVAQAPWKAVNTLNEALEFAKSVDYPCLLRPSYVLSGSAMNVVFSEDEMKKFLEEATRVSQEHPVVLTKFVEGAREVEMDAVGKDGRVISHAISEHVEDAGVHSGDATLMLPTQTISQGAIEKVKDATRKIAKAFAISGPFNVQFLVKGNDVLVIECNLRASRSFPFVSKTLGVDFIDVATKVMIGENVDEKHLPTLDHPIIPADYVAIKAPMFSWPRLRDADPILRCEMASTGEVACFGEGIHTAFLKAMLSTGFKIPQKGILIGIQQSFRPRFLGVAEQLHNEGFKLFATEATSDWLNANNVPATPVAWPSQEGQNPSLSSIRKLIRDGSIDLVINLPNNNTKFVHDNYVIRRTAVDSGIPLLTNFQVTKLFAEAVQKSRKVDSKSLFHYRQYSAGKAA
The assay is described as follows: ADP-Glo endpoint assay measuring the ATPase activity of CPS1. Format: biochemical. The settings on record: geometric mean of a minimum of two values; 50 nM CPS1, 10 μM ATP, 0.2 mM NAG, 60 min at room temperature; read-out: ADPGlo IC50. In a few lines:
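Full-length human His-tagged CPS1 from SF21 insect cells, 50 nM, preincubated 20 min with compound in pH 7.0 HEPES buffer containing KHCO3, (NH4)2SO3, MgCl2 and 0.2 mM NAG. Reaction started with 10 μM ATP, 60 min at room temperature; ADP formed detected by ADP-Glo luminescence.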
In general terms: ADP-Glo first removes unused ATP, then detects ADP through luciferase.

This is an account of results in patent US20230026271A1, “Piperazine Compounds for Inhibiting CPS1” (Eisai R&D Management Co., Ltd., priority 2019, published 2023).

Consider `COc1ccc(OC)c2[nH]c(C(=O)N3C[C@@H](C)N(C(=O)c4ccc5cc[nH]c5c4)[C@H](C)C3)cc12` [Compound 53, ((3R,5R)-4-(1H-indole-6-carbonyl)-3,5-dimethylpiperazin-1-yl)(4,7-dimethoxy-1H-indol-2-yl)methanone], for which the IC50 (as a rule, the concentration that inhibits the measured activity by half) is 1.59 µM.

For the compound `COc1ccc(OC)c2[nH]c(C(=O)N3CCN(C(=O)c4ccc5cc[nH]c5c4)CC3)cc12` [Compound 54, (4-(1H-indole-6-carbonyl)piperazin-1-yl)(4,7-dimethoxy-1H-indol-2-yl)methanone], the concentration for half-maximal inhibition (IC50) is 2.12 µM.

`COc1ccc(C(=O)N2C[C@@H](C)N(C(=O)c3cc4cc(O)ccc4[nH]3)[C@H](C)C2)c(F)c1` [Compound 55, ((2R,6R)-4-(2-fluoro-4-methoxybenzoyl)-2,6-dimethylpiperazin-1-yl)(5-hydroxy-1H-indol-2-yl)methanone]: the IC50 worked out at 2.13 µM. In the case of `COc1ccc(C(=O)N2[C@H](C)CN(C(=O)c3c[nH]c4c(C)cccc34)C[C@H]2C)c(F)c1` [Compound 56, ((2R,6R)-2,6-dimethyl-4-(7-methyl-1H-indole-3-carbonyl)piperazin-1-yl)(2-fluoro-4-methoxyphenyl)methanone], the half-maximal inhibitory concentration (IC50) turned out to be 3.28 µM. On to `COc1ccc(C(=O)N2C[C@@H](C)N(C(=O)c3cc4ccccc4[nH]3)[C@H](C)C2)c(F)c1` [Compound 57, ((3R,5R)-4-(1H-indole-2-carbonyl)-3,5-dimethylpiperazin-1-yl)(2-fluoro-4-methoxyphenyl)methanone], for which the IC50 came out at 3.3 µM. With `COc1ccc(C(=O)N2[C@H](C)CN(C(=O)c3c[nH]c4c(F)cccc34)C[C@H]2C)c(F)c1` [Compound 58, (7-fluoro-1H-indol-3-yl)((3R,5R)-4-(2-fluoro-4-methoxybenzoyl)-3,5-dimethylpiperazin-1-yl)methanone], the IC50 was 4.05 µM. For `COc1ccc(C(=O)N2[C@H](C)CN(C(=O)c3cc4ccccc4[nH]3)C[C@H]2C)c(F)c1` [Compound 59, ((2R,6R)-4-(1H-indole-2-carbonyl)-2,6-dimethylpiperazin-1-yl)(2-fluoro-4-methoxyphenyl)methanone], the half-maximal inhibitory concentration (IC50) amounted to 5.58 µM. For `COc1ccc(C(=O)N2[C@H](C)CN(C(=O)c3c[nH]c4ccc(Cl)cc34)C[C@H]2C)c(F)c1` [Compound 61, (5-chloro-1H-indol-3-yl)((3R,5R)-4-(2-fluoro-4-methoxybenzoyl)-3,5-dimethylpiperazin-1-yl)methanone] the value was 7.39 µM; for `COc1ccc(C(=O)N2[C@H](C)CN(c3ncnc4cc(OC)ccc34)C[C@H]2C)c(F)c1` [Compound 62, (2-fluoro-4-methoxyphenyl)((2R,6R)-4-(7-methoxyquinazolin-4-yl)-2,6-dimethylpiperazin-1-yl)methanone], 10.5 µM; for `COc1ccc(C(=O)N2C[C@@H](C)N(C(=O)c3ccc(OC)cc3)[C@H](C)C2)cc1` [Compound 63, ((2R,6R)-2,6-dimethylpiperazine-1,4-diyl)bis((4-methoxyphenyl)methanone)], 4.74 µM. For the compound `COc1ccc(OC)c2[nH]c(C(=O)N3CCN(C(=O)Cc4c[nH]c5ccccc45)CC3)cc12` [Compound 64, 1-(4-(4,7-dimethoxy-1H-indole-2-carbonyl)piperazin-1-yl)-2-(1H-indol-3-yl)ethanone], the IC50 was 3.72 µM. In the case of `COc1ccc(C(=O)N2[C@H](C)CN(C(=O)c3ccc(O)cc3F)C[C@H]2C)c(F)c1` [Compound 65, ((2R,6R)-4-(2-fluoro-4-hydroxybenzoyl)-2,6-dimethylpiperzin-1-yl)(2-fluoro-4-methoxyphenyl)methanone], the 50% inhibitory concentration (IC50) worked out at 3.79 µM.

Turning to `COc1ccc(C(=O)N2C[C@@H](C)N(C(=O)c3ccc(Cl)cc3F)[C@H](C)C2)c(F)c1` [Compound 66, ((3R,5R)-4-(4-chloro-2-fluorobenzoyl)-3,5-dimethylpiperazin-1-yl)(2-fluoro-4-methoxyphenyl)methanone], the IC50 is 4.91 µM. Consider `COc1ccc(C(=O)N2C[C@@H](C)N(C(=O)c3cc(OC)ccc3F)[C@H](C)C2)c(F)c1` [Compound 67, ((2R,6R)-4-(2-fluoro-4-methoxybenzoyl)-2,6-dimethylpiperazin-1-yl)(2-fluoro-5-methoxyphenyl)methanone], for which the concentration for half-maximal inhibition (IC50) worked out at 5.15 µM. For `COc1ccc(C(=O)N2CC(C)N(C(=O)c3ccc(OC)cc3F)C(C)C2)c(F)c1` (stereo not shown) [Compound 68, (2,6-dimethylpiperazine-1,4-diyl)bis((2-fluoro-4-methoxyphenyl)methanone)] the value was 6.34 µM; for `COc1ccc(C(=O)N2[C@H](C)CN(C(=O)c3ccc4c(c3)NCC4)C[C@H]2C)c(F)c1` [Compound 69, ((3R,5R)-4-(2-fluoro-4-methoxybenzoyl)-3,5-dimethylpiperazin-1-yl)(indolin-6-yl)methanone], 6.43 µM; for `COc1ccc(C(=O)N2C[C@@H](C)N(C(=O)c3ccc(C)c(O)c3)[C@H](C)C2)c(F)c1` [Compound 70], 8.71 µM.

For the compound `COc1ccc(C(=O)N2CC(C)N(C(=O)c3ccc(OC)cc3F)CC2C)c(F)c1` (stereo not shown) [Compound 71], the IC50 is 9.97 µM. Next, `COc1ccc(C(=O)N2[C@H](C)CN(C(=O)c3ccc(OC)c(O)c3)C[C@H]2C)c(F)c1` [Compound 72, ((3R,5R)-4-(2-fluoro-4-methoxybenzoyl)-3,5-dimethylpiperazin-1-yl)(3-hydroxy-4-methoxyphenyl)methanone]: 11.5 µM. Next, `COc1ccc(C(=O)N2C[C@@H](C)N(C(=O)c3ccc4cc[nH]c4c3F)[C@H](C)C2)c(F)c1` [Compound 73, (7-fluoro-1H-indol-6-yl)((2R,6R)-4-(2-fluoro-4-methoxybenzoyl)-2,6-dimethylpiperazin-1-yl)methanone]: 11.6 µM; `COc1ccc(C(=O)N2C[C@@H](C)N(C(=O)c3ccc4c(c3)CCCO4)[C@H](C)C2)c(F)c1` [Compound 74, ((3R,5R)-4-(chroman-6-carbonyl)-3,5-dimethylpiperazin-1-yl)(2-fluoro-4-methoxyphenyl)methanone]: 15.8 µM; `COc1ccc(C(=O)N2C[C@@H](C)N(C(=O)c3cccc(O)c3F)[C@H](C)C2)c(F)c1` [Compound 75, ((3R,5R)-4-(2-fluoro-3-hydroxybenzoyl)-3,5-dimethylpiperazin-1-yl)(2-fluoro-4-methoxyphenyl)methanone]: 16.1 µM.

Take `COc1ccc(C(=O)N2C[C@@H](C)N(C(=O)c3ccc(S(C)(=O)=O)cc3F)[C@H](C)C2)c(F)c1` [Compound 76, ((3R,5R)-4-(2-fluoro-4-(methylsulfonyl)benzoyl)-3,5-dimethylpiperazin-1-yl)(2-fluoro-4-methoxyphenyl)methanone]: the IC50 was 16.7 µM.

On to `COc1ccc(C(=O)N2[C@H](C)CN(C(=O)c3c[nH]c4ccccc34)C[C@H]2C)c(F)c1` [Compound 77, ((2R,6R)-4-(1H-indole-3-carbonyl)-2,6-dimethylpiperazin-1-yl)(2-fluoro-4-methoxyphenyl)methanone], for which the 50% inhibitory concentration (IC50) is 18.9 µM.

With `COc1ccc(C(=O)N2[C@H](C)CN(C(=O)Cc3c(C)[nH]c4ccccc34)C[C@H]2C)c(F)c1` [Compound 78, 1-((3R,5R)-4-(2-fluoro-4-methoxybenzoyl)-3,5-dimethylpiperazin-1-yl)-2-(2-methyl-1H-indol-3-yl)ethanone], the 50% inhibitory concentration (IC50) was 19.2 µM.
